Legend:
Conditions in all cases: 48 h
NOMO1 [1] = assay: cell viability relative to DMSO control; higher = less cytotoxic
Summary of the method: (§1)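 NOMO1, SEM and P12-Ichikawa leukemia cells spent at least four passages adapting to each medium before use. They were seeded at 500 cells/well (NOMO1, SEM) or 1000 cells/well (P12-Ichikawa) in 5 μl in 1536-well plates and pin-dosed with library compounds in DMSO at 11 threefold steps from 47 μM down to 0.79 nM. After 48 h at 37°C, CellTiter-Glo One luminescence was read. Viability is reported as a percentage of the DMSO wells on each plate, with cell-free wells as background.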

SEM cells [2] = assay: as above
Summary of the method: as §1

P12-Ichikawa [3] = assay: as above
Summary of the method: as §1

NOMO1 [4] = assay: AUC of viability dose-response curve (% viability x log10 dose units); higher = less sensitive
Summary of the method: (§2)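 Medium-adapted leukemia cells in 1536-well plates, at 500 or 1000 cells/well, were incubated for 48 h at 37°C with library compounds in DMSO at 11 threefold doses from 47 μM to 0.79 nM. CellTiter-Glo One luminescence normalised per plate to DMSO and cell-free wells was fitted with a four-parameter log-logistic model over log10 doses. Area under the curve was integrated from this fit by trapezoidal rule, with curves beyond full viability scaled and failed quality-control curves removed.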

SEM cells [5] = assay: as above
Summary of the method: as §2

P12-Ichikawa [6] = assay: as above
Summary of the method: as §2

CC(C)(Sc1ccc(CCN(CCCCC2CCCCC2)C(=O)NC2CCCCC2)cc1)C(=O)O
cell viability [%]
Conditions | NOMO1 [1] | P12-Ichikawa [3] | SEM cells [2]
HPLM + 10% dialyzed FBS, 0.000781 µM | 107 | 114 | 98.9
HPLM + 10% dialyzed FBS, 0.00234 µM | 120 | 115 | 105
HPLM + 10% dialyzed FBS, 0.00702 µM | 101 | 116 | 110
HPLM + 10% dialyzed FBS, 0.0211 µM | 111 | 115 | 102
HPLM + 10% dialyzed FBS, 0.0632 µM | 109 | 110 | 106
HPLM + 10% dialyzed FBS, 0.19 µM | 109 | 109 | 113
HPLM + 10% dialyzed FBS, 0.569 µM | 118 | 111 | 111
HPLM + 10% dialyzed FBS, 1.71 µM | 108 | 105 | 96.3
HPLM + 10% dialyzed FBS, 5.12 µM | 101 | 107 | 94.4
HPLM + 10% dialyzed FBS, 15.4 µM | 114 | 101 | 93.9
HPLM + 10% dialyzed FBS, 46.1 µM | 101 | 83.4 | 98.9
RPMI 5 mM glucose + 10% FBS, 0.000781 µM | 102 | 111 | 96.3
RPMI 5 mM glucose + 10% FBS, 0.00234 µM | 120 | 112 | 108
RPMI 5 mM glucose + 10% FBS, 0.00702 µM | 113 | 106 | 117
RPMI 5 mM glucose + 10% FBS, 0.0211 µM | 110 | 110 | 114
RPMI 5 mM glucose + 10% FBS, 0.0632 µM | 120 | 109 | 102
RPMI 5 mM glucose + 10% FBS, 0.19 µM | 120 | 111 | 105
RPMI 5 mM glucose + 10% FBS, 0.569 µM | 107 | 115 | 105
RPMI 5 mM glucose + 10% FBS, 1.71 µM | 118 | 102 | 98.8
RPMI 5 mM glucose + 10% FBS, 5.12 µM | 98 | 107 | 107
RPMI 5 mM glucose + 10% FBS, 15.4 µM | 95.6 | 89 | 89.6
RPMI 5 mM glucose + 10% FBS, 46.1 µM | 118 | 86.2 | 75.9
RPMI 5 mM glucose + 10% dialyzed FBS, 0.000781 µM | 106 | 113 | 103
RPMI 5 mM glucose + 10% dialyzed FBS, 0.00234 µM | 102 | 110 | 107
RPMI 5 mM glucose + 10% dialyzed FBS, 0.00702 µM | 102 | 114 | 102
RPMI 5 mM glucose + 10% dialyzed FBS, 0.0211 µM | 114 | 122 | 111
RPMI 5 mM glucose + 10% dialyzed FBS, 0.0632 µM | 113 | 116 | 117
RPMI 5 mM glucose + 10% dialyzed FBS, 0.19 µM | 104 | 113 | 101
RPMI 5 mM glucose + 10% dialyzed FBS, 0.569 µM | 112 | 104 | 114
RPMI 5 mM glucose + 10% dialyzed FBS, 1.71 µM | 108 | 111 | 96.9
RPMI 5 mM glucose + 10% dialyzed FBS, 5.12 µM | 93.7 | 104 | 101
RPMI 5 mM glucose + 10% dialyzed FBS, 15.4 µM | 114 | 102 | 113
RPMI 5 mM glucose + 10% dialyzed FBS, 46.1 µM | 98.8 | 73.5 | 82.1

AUC of viability dose-response curve
Conditions | NOMO1 [4] | P12-Ichikawa [6] | SEM cells [5]
HPLM + 10% dialyzed FBS | 467 | 460 | 460
RPMI 5 mM glucose + 10% FBS | 467 | 462 | 463
RPMI 5 mM glucose + 10% dialyzed FBS | 472 | 460 | 472

Reference: the supplement of paper PMC11451515
